# Data published in patent US11731970B1, “Pyrrolo[2,3-b]quinoline compounds as antibacterial agents” (KING FAISAL UNIVERSITY, priority 2023, dated 2023).
# Where two headings read alike, the source gives them in different places.
# Columns and labels:
# [1] = biological target: T1, DNA gyrase from E. coli (Escherichia coli, UniProt P0AES4+P0AES6); experiment: E. coli DNA gyrase inhibition (Inspiralis assay); assay type: biochemical
# T1 construct: purchased Inspiralis
# Procedure: Inhibitory potencies were investigated utilizing the Inspiralis assay on streptavidin-coated 96-well microtiter plates. First, the plates were rehydrated with buffer (20 mM Tris-HCl with pH 7.6, 0.01% w/v BSA, 0.05% v/v Tween 20, 137 mM NaCl) and the biotinylated oligonucleotide was then immobilized. After washing off the unbound oligonucleotide, the enzyme test was performed. The reaction volume of 30 μL in buffer (35 mM Tris×HCl with pH 7.5, 4 mM MgCl2, 24 mM KCl, 2 mM DTT, 1.8 mM spermidine, 1 mM ATP, 6.5% w/v glycerol, 0.1 mg/mL albumin) contained 1.5 U of DNA gyrase from E. coli, 0.75 μg of relaxed pNO1 plasmid, and 3 μL solution of the inhibitor in 10% DMSO and 0.008% Tween 20. Reaction solutions were incubated at 37° C. for 30 min. After that, the TF buffer (50 mM NaOAc with pH 5.0, 50 mM NaCl and 50 mM MgCl2) was added to terminate the enzymatic reaction. After additional incubation for 30 min at rt, during which biotinoligonucleotide-plasmid triplex was formed, the unbound plasmid was washed off using TF buffer and SybrGOLD in T10 buffer (10 mM Tris HCl with pH 8.0 and 1 mM EDTA) was added. The fluorescence was measured with a microplate reader (BioTek Synergy H4, excitation: 485 nm, emission: 535 nm). Initial screening was done at 100 or 10 μM concentration of inhibitors. […] GraphPad Prism software was used to calculate the IC50 values. […]
# [2] = system: Staphylococcus aureus ATCC BAA-1556 (MERSA resistant); experiment: Antibacterial MIC, CLSI M07-A10 dilution; assay type: cell-based; settings: ATCCBAA1556
# [3] = system: Staphylococcus epidermidis; experiment: Antibacterial MIC, CLSI M07-A10 dilution; assay type: cell-based
# [4] = system: Pseudomonas aeruginosa MTCC 741; experiment: Antibacterial MIC, CLSI M07-A10 dilution; assay type: cell-based; settings: MTCC741
# [5] = system: Enterococcus faecium ATCC 35667; experiment: Antibacterial MIC, CLSI M07-A10 dilution; assay type: cell-based; settings: ATCC35667
# [6] = system: Escherichia coli MTCC 443; experiment: Antibacterial MIC, CLSI M07-A10 dilution; assay type: cell-based; settings: MTCC443
# [7] = system: Bacillus subtilis MTCC 441; experiment: Antibacterial MIC, CLSI M07-A10 dilution; assay type: cell-based; settings: MTCC441
# [8] = system: Staphylococcus aureus ATCC 29213; experiment: Antibacterial MIC, CLSI M07-A10 dilution; assay type: cell-based; settings: ATCC29213
# [9] = system: Enterococcus faecium ATCC 51559 (VRE resistant); experiment: Antibacterial MIC, CLSI M07-A10 dilution; assay type: cell-based
# [10] = system: Klebsiella pneumonia MTCC 618; experiment: Antibacterial MIC, CLSI M07-A10 dilution; assay type: cell-based; settings: Klebsiella pneumoniae, MTCC618
# [11] = system: Mycobacterium tuberculosis H37Rv strain; experiment: Anti-tubercular alamar blue microplate MIC; assay type: cell-based; settings: 168 h, M. tuberculosis H37Rv, seven days at 37° C., read-out: anti-mycobacterial activity (MIC)
# T1 sequence (P0AES4 whole entry, one chain of several): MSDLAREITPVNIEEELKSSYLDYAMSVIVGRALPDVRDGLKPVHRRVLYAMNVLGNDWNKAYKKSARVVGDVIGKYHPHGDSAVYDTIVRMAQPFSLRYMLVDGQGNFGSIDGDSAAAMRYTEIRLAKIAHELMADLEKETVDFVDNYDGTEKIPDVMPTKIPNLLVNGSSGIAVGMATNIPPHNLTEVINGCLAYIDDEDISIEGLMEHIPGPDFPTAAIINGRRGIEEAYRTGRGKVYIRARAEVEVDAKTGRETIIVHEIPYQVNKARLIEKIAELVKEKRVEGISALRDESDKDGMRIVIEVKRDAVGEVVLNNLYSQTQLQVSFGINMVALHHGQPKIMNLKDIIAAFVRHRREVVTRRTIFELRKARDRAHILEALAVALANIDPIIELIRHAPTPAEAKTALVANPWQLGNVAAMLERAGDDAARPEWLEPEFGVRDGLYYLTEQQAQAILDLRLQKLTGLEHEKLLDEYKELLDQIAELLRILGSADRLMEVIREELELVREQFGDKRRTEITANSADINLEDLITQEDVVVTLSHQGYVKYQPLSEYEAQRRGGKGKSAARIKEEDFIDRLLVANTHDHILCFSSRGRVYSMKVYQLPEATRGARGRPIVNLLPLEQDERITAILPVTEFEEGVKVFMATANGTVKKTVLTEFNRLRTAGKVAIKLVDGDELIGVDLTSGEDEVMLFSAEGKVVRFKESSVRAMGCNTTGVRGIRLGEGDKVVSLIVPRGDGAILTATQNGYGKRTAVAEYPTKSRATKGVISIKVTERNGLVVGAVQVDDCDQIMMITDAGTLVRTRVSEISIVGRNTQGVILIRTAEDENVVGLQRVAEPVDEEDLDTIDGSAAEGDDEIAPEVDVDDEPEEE
Compound,IC50 [1] [nM],MIC [2] [µg/mL],MIC ([3]; read-out: MIC) [µg/mL],"MIC ([4]; Pseudomonas aeruginosa MTCC 741, read-out: MIC) [µg/mL]","MIC ([5]; Enterococcus faecium ATCC 35667, read-out: MIC) [µg/mL]","MIC ([6]; Escherichia coli MTCC 443, read-out: MIC) [µg/mL]","MIC ([7]; Bacillus subtilis MTCC 441, read-out: MIC) [µg/mL]",MIC [8] [µg/mL],"MIC ([9]; Enterococcus faecium ATCC 51559 (VRE resistant), read-out: MIC) [µg/mL]","MIC ([10]; Klebsiella pneumonia MTCC 618, read-out: MIC) [µg/mL]",MIC [11] [µg/mL],MIC [3] [µg/mL],MIC ([4]; Pseudomonas aeruginosa) [µg/mL],MIC ([5]; Enterococcus faecium) [µg/mL],MIC ([6]; Escherichia coli) [µg/mL],MIC ([7]; Bacillus subtilis) [µg/mL],MIC ([9]; Enterococcus faecium) [µg/mL],MIC [10] [µg/mL]
"CCCCCN(C)Cc1cc(C(=O)O)ccc1-c1cc2cc3cc(F)cc(NC)c3nc2[nH]1 [Compound 6, 4-(6-fluoro-8-(methylamino)-1H-pyrrolo[2,3-b]quinolin-2-yl)-3-((methyl(pentyl)amino)methyl)benzoic acid]",25,0.75,1,0.75,0.75,4,0.5,0.75,1,1,4,–,–,–,–,–,–,–
"CN[C@H](CC(C)C)C(=O)N[C@H]1C(=O)N[C@@H](CC(N)=O)C(=O)N[C@H]2C(=O)N[C@H]3C(=O)N[C@H](C(=O)N[C@H](C(=O)O)c4cc(O)cc(O)c4-c4cc3ccc4O)[C@H](O)c3ccc(c(Cl)c3)Oc3cc2cc(c3O[C@@H]2O[C@H](CO)[C@@H](O)[C@H](O)[C@H]2O[C@H]2C[C@](C)(N)[C@H](O)[C@H](C)O2)Oc2ccc(cc2Cl)[C@H]1O [Vancomycin, reference compound]",–,–,–,–,–,–,–,–,–,–,–,1,> 128,0.5,> 128,0.5,> 128,> 128
